Source: US20250084121A1, “BIOREACTIVE COMPOSITIONS AND METHODS OF USE THEREOF” (The Regents of the University of California, priority 2018, published 2025)

Columns and labels:
[1] = tested on: E. coli DH10B cells; assay: Growth curve of E. coli DH10B cells in the presence or absence of FSY; format: cell-based; settings: 1 mM FSY, 37° C.
Method: FIG. 6 provides a growth curve of E. coli DH10B cells at 37° C. in the presence or absence of 1 mM FSY. The experiments were repeated for three times.
The incorporation specificity of FSY into proteins in E. coli was evaluated. The Zspa affibody (Afb) gene containing a TAG codon at position 36 (Afb-36TAG) was co-expressed with the tRNA^Pyl/FSYRS pair in E. coli. In the absence of FSY, no full-length Afb was detected; when 1 mM FSY was added in growth media, full-length Afb36FSY was produced with a yield of 1.6 mg/L (FIG. 1C). The purified Afb36FSY was analyzed by electrospray ionization time-of-flight mass spectrometry (ESI-TOF MS) (FIG. 1D). A peak observed at 7855.96 Da corresponds to intact Afb containing FSY at site 36 (Afb36FSY: expected 7856.69 Da). A peak measured at 7724.77 Da corresponds to Afb36FSY lacking the initiating Met (Afb36FSY-Met: expected 7725.50 Da). […] FSY was also incorporated at position 24 of the Z protein and analyzed with tandem MS.

[2] = tested on: 293T cells; assay: Cell viability assay with various concentrations of FSY; format: cell-based
[3] = tested on: HeLa-EGFP-182TAG reporter cells; assay: Fluorescence confocal microscopy of reporter cells; format: cell-based; settings: in the presence of FSY
Method: FSY incorporation into proteins in mammalian cells was tested. HeLa-EGFP-182TAG reporter cells were transfected with plasmid pMP-FSYRS-3×tRNA, which expresses FSYRS and tRNA^Pyl genes. Wang et al, Nat. Neurosci., 10:1063-1072 (2007). Suppression of the 182TAG codon would produce full-length EGFP rendering cells fluorescent. After transfection, cells were incubated with FSY of various concentrations at 37° C. for 24 or 48 h followed by flow cytometry. […] The fluorescence intensity increased with FSY concentration and incubation time (FIG. 2B, FIG. 7). As a positive control, p-azido-L-phenylalanine (AzF) was incorporated into reporter cells in parallel using plasmid pIre-Azi3, which is the most efficient Uaa incorporation system in mammalian cells in our hands. Coin et al, Cell, 155:1258-1269 (2013). FSY incorporation compared favorably with AzF, reaching 76% of the AzF level. […] Chen et al, J. Am. Chem. Soc., 138:7353-7364 (2016). […] No fluorescence signal was detected when FSY was not added.
Fluorescence confocal microscopy of HeLa-EGFP-182TAG reporter cells: One day before transfection, 4.5×10^4 HeLa-EGFP-182TAG cells were seeded in a Greiner bio-one CELLview glass bottom dish containing 500 μL of DMEM media with 10% FBS, and incubated at 37° C. in a CO2 incubator. […]

[4] = tested on: HeLa-EGFP-182TAG reporter cells; assay: FACS analysis of Uaa incorporation into EGFP-182TAG reporter cells; format: cell-based
Method: FSY incorporation into proteins in mammalian cells was tested. HeLa-EGFP-182TAG reporter cells were transfected with plasmid pMP-FSYRS-3×tRNA, which expresses FSYRS and tRNA^Pyl genes. Wang et al, Nat. Neurosci., 10:1063-1072 (2007). Suppression of the 182TAG codon would produce full-length EGFP rendering cells fluorescent. After transfection, cells were incubated with FSY of various concentrations at 37° C. for 24 or 48 h followed by flow cytometry. […] The fluorescence intensity increased with FSY concentration and incubation time (FIG. 2B, FIG. 7). As a positive control, p-azido-L-phenylalanine (AzF) was incorporated into reporter cells in parallel using plasmid pIre-Azi3, which is the most efficient Uaa incorporation system in mammalian cells in our hands. Coin et al, Cell, 155:1258-1269 (2013). […] No fluorescence signal was detected when FSY was not added.
FACS analysis of Uaa incorporation into HeLa-GFP-182TAG reporter cells: One day before transfection, 4.5×10^4 HeLa-EGFP-182TAG reporter cells (Wang et al, Nat. Neurosci., 10:1063-1072 (2007)) were seeded in a Greiner bio-one 24 well-cell culture dish containing 500 μL of DMEM media with 10% FBS, and incubated at 37° C. in a CO2 incubator. […] The cells were resuspended in 300 μL of FACS buffer (1×PBS, 2% FBS, 1 mM EDTA, 0.1% sodium azide, […]) and analyzed by BD LSRFortessa™ cell analyzer.

[5] = tested on: HeLa-EGFP-182TAG reporter cells; assay: Cell viability assay with various concentrations of FSY; format: cell-based
[6] = biological target: T1, extracellular domain of the hGH receptor (Homo sapiens, UniProt P10912); assay: Covalent crosslinking of hGH with the extracellular domain of hGH receptor (Western blot); format: binding; settings: PBS buffer, different durations of time, Western blot anti-Hisx6
T1 construct: incubated with the extracellular domain of the hGH receptor
T1 sequence (P10912 19-264): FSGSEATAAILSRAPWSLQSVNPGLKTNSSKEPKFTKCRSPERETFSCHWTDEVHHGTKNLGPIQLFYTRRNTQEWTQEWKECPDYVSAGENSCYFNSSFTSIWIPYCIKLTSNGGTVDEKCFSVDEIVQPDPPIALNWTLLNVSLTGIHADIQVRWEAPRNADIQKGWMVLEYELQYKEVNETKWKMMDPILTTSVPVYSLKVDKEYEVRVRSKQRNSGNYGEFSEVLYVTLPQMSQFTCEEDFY

[7] = tested on: STAT5 phosphorylation in BAF3 cells, a cell line with hGH receptor expression; assay: pSTAT5 production in BAF3 cells upon stimulation by hGH (Western blot); format: cell-based; settings: Western blot of cell lysates
Description: It was also examined whether FSY incorporation into hGH would affect its biological activity. Upon hGH binding with its receptor, STAT5 is phosphorylated as a downstream signal via the JAK/STAT pathway, leading to transcription of genes important for cell immunity, proliferation, and apoptosis (Waters, M J. et al. Clin. Exp. Pharmacol. Physiol. 1999, 10760-764). The inventors stimulated BAF3 cells, a cell line with hGH receptor expression, with hGH(WT) and hGH(FSY), and then probed pSTAT5 expression using Western blot analysis of cell lysates.

Row | Compound | E. coli growth (cytotoxicity) [1] | toxicity to 293T cells [2] | cell morphology [3] | FSY incorporation relative to the AzF level ([4]; EGFP-182TAG suppression in HeLa reporter cells, AzF as positive control) | EGFP fluorescence by flow cytometry ([4]; cells transfected with pMP-FSYRS-3×tRNA, FSY at 37° C. for 24 or 48 h) | toxicity to HeLa cells [5] | covalent crosslinking with the hGH receptor (band at ~50 kD) [6] | stimulation of STAT5 phosphorylation [7]
1 | N[C@@H](Cc1ccc(OS(=O)(=O)F)cc1)C(=O)O [FSY, fluorosulfate-L-tyrosine] | did not affect E. coli growth | no obvious toxicity | remained normal | 76% | Strong EGFP fluorescence | no obvious toxicity | – | –
2 | hGH(FSY): Human growth hormone with FSY genetically incorporated at site 68 | – | – | – | – | – | – | covalently crosslinked | the same effect of stimulating STAT5 phosphorylation as the hGH(WT)
